From patent US20230041743A1, “1,8-NAPHTHYRIDIN-2-ONE COMPOUNDS FOR THE TREATMENT OF AUTOIMMUNE DISEASE” (Hoffmann-La Roche Inc., priority 2019, published 2023)
pIC50: −log10 of the molar value.

Target: T1, human TLR8 (Homo sapiens, UniProt Q9NR97)
T1 construct: host or cells: HEK293 (HEK-Blue hTLR8)
T1 sequence (Q9NR97 27-1041): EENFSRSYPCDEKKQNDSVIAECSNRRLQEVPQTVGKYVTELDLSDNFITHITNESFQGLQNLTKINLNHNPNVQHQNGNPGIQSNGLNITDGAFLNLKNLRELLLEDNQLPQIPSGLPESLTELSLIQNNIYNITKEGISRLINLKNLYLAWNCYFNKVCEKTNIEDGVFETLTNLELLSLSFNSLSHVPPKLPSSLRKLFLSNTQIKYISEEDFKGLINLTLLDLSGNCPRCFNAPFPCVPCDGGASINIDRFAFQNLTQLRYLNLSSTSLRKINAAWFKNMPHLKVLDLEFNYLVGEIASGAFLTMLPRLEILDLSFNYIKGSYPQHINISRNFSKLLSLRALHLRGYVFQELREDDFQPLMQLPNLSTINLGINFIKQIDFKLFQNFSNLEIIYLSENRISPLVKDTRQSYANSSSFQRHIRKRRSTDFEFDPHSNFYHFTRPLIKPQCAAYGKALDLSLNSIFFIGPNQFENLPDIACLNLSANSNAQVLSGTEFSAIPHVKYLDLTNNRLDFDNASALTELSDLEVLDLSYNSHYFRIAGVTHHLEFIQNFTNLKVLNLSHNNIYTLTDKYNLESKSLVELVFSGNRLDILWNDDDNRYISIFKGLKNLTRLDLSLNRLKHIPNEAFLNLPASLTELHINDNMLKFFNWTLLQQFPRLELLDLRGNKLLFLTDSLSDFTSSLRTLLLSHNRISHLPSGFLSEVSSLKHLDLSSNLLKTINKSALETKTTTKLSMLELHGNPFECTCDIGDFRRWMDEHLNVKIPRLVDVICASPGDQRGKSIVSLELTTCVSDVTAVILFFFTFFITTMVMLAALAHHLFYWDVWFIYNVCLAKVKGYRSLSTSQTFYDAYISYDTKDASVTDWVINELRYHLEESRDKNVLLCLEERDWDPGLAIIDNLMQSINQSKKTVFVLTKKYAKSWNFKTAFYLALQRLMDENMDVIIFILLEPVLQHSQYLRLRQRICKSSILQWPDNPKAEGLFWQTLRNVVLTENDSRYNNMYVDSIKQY
Assay: HEK293-Blue-hTLR-8 cells assay (SEAP reporter, R848 stimulation)
Assay type: cell-based
Details: HEK293-Blue-hTLR8 cells, R848 ligand, 20 hrs incubation; read-out: HEK/hTLR8 IC50
From the text: HEK293-Blue-hTLR-8 Cells Assay:
A stable HEK293-Blue-hTLR-8 cell line was purchased from InvivoGen (Cat. #: hkb-htlr8, San Diego, Calif., USA). These cells were originally designed for studying the stimulation of human TLR8 by monitoring the activation of NF-κB. A SEAP (secreted embryonic alkaline phosphatase) reporter gene was placed under the control of the IFN-β minimal promoter fused to five NF-κB and AP-1-binding sites. The SEAP was induced by activating NF-κB and AP-1 via stimulating HEK-Blue hTLR8 cells with TLR8 ligands. Therefore the reporter expression was declined by TLR8 antagonist under the stimulation of a ligand, such as R848, for incubation of 20 hrs. The cell culture supernatant SEAP reporter activity was determined using QUANTI-Blue™ kit (Cat. #: rep-qb1, Invivogen, San Diego, Ca, USA) at a wavelength of 640 nm, a detection medium that turns purple or blue in the presence of alkaline phosphatase.
HEK293-Blue-hTLR8 cells were incubated at a density of 250,000-450,000 cells/mL in a volume of 170 μL in a 96-well plate in Dulbecco's Modified Eagle's medium (DMEM) containing 4.5 g/L glucose, 50 U/mL penicillin, […], […], 2 mM L-glutamine, 10% (v/v) heat-inactivated fetal bovine serum with addition of 20 μL test compound in a serial dilution in the presence of final DMSO at 1% and 10 μL of 60 uM R848 in above DMEM, perform incubation under 37° C. in a CO2 incubator for 20 hrs. Then 20 μL of the supernatant from each well was incubated with 180 μL Quanti-blue substrate solution at 37° C. for 2 hrs and the absorbance was read at 620-655 nm using a spectrophotometer. The signaling pathway that TLR8 activation leads to downstream NF-κB activation has been widely accepted, and therefore similar reporter assay was modified for evaluating TLR8 antagonist.

C[C@@H]1CN(c2cc(=O)n(C)c3ncccc23)C[C@@H]2c3ccc(N4CCC[C@@H](N)C4)cc3CN12 [Example 16, 4-[(4R,10bS)-8-[(3R)-3-amino-1-piperidyl]-4-methyl-3,4,6,10b-tetrahydro-1H-pyrazino[2,1-a]isoindol-2-yl]-1-methyl-1,8-naphthyridin-2-one]
pIC50: 8.41

C[C@@H]1CN(c2cc(=O)n(C)c3ncccc23)C[C@@H]2c3ccc(OCCN(C)C)cc3CN12 [Example 23, 4-[(4R,10bS)-8-[2-(dimethylamino)ethoxy]-4-methyl-3,4,6,10b-tetrahydro-1H-pyrazino[2,1-a]isoindol-2-yl]-1-methyl-1,8-naphthyridin-2-one]
pIC50: 9.00

C[C@@H]1CN(c2ccc3c(c2)CN2[C@H](C)CN(c4cc(=O)n(C)c5ncccc45)C[C@H]32)CCN1 [Example 14, 4-[(4R,10bS)-4-methyl-8-[(3R)-3-methylpiperazin-1-yl]-3,4,6,10b-tetrahydro-1H-pyrazino[2,1-a]isoindol-2-yl]-1-methyl-1,8-naphthyridin-2-one]
pIC50: 9.00

COC[C@@H]1CNCCN1c1ccc2c(c1)CN1[C@H](C)CN(c3cc(=O)n(C)c4ncccc34)C[C@H]21 [Example 10, 4-[(4R,10bS)-8-[(2S)-2-(methoxymethyl)piperazin-1-yl]-4-methyl-3,4,6,10b-tetrahydro-1H-pyrazino[2,1-a]isoindol-2-yl]-1-methyl-1,8-naphthyridin-2-one]
pIC50: 8.40

C[C@@H]1CN(c2cc(=O)n(C)c3ncccc23)C[C@@H]2c3ccc(N4CC(C)(N)C4)cc3CN12 [Example 1, 4-[(4R,10bS)-8-(3-amino-3-methyl-azetidin-1-yl)-4-methyl-3,4,6,10b-tetrahydro-1H-pyrazino[2,1-a]isoindol-2-yl]-1-methyl-1,8-naphthyridin-2-one]
pIC50: 8.54

C[C@@H]1CN(c2cc(=O)n(C)c3ncccc23)C[C@@H]2c3ccc([C@H]4CC[C@@H](N5CCOCC5)CC4)cc3CN12 [Example 27B, 4-[(4R,10bS)-4-methyl-8-(cis-4-morpholinocyclohexyl)-3,4,6,10b-tetrahydro-1H-pyrazino[2,1-a]isoindol-2-yl]-1-methyl-1,8-naphthyridin-2-one]
pIC50: 8.00

C[C@@H]1CN(c2cc(=O)n(C)c3ncccc23)C[C@@H]2c3ccc(N4CCC(C)(N)CC4)cc3CN12 [Example 18, 4-[(4R,10bS)-8-(4-amino-4-methyl-1-piperidyl)-4-methyl-3,4,6,10b-tetrahydro-1H-pyrazino[2,1-a]isoindol-2-yl]-1-methyl-1,8-naphthyridin-2-one]
pIC50: 8.60

C[C@@H]1CN(c2cc(=O)n(C)c3ncccc23)C[C@@H]2c3ccc(N4CC5(CNCCO5)C4)cc3CN12 [Example 3, 4-[(4R,10bS)-4-methyl-8-(5-oxa-2,8-diazaspiro[3.5]nonan-2-yl)-3,4,6,10b-tetrahydro-1H-pyrazino[2,1-a]isoindol-2-yl]-1-methyl-1,8-naphthyridin-2-one]
pIC50: 8.59

C[C@@H]1CN(c2cc(=O)n(C)c3ncccc23)C[C@@H]2c3ccc([C@H]4CC[C@H](N5CCOCC5)CC4)cc3CN12 [Example 27A, 4-[(4R,10bS)-4-methyl-8-(trans-4-morpholinocyclohexyl)-3,4,6,10b-tetrahydro-1H-pyrazino[2,1-a]isoindol-2-yl]-1-methyl-1,8-naphthyridin-2-one]
pIC50: 8.70

C[C@@H]1CN(c2cc(=O)n(C)c3ncccc23)C[C@@H]2c3ccc(N4C[C@@H]5C[C@H]4CN5)cc3CN12 [Example 19, 4-[(4R,10bS)-8-[(1S,4S)-2,5-diazabicyclo[2.2.1]heptan-2-yl]-4-methyl-3,4,6,10b-tetrahydro-1H-pyrazino[2,1-a]isoindol-2-yl]-1-methyl-1,8-naphthyridin-2-one]
pIC50: 7.95

CCn1c(=O)cc(N2C[C@@H](C)N3Cc4cc(N5C[C@@H](N)[C@H](OC)C5)ccc4[C@H]3C2)c2cccnc21 [Example 29, 4-[(4R,10bS)-8-[(3R,4R)-3-amino-4-methoxy-pyrrolidin-1-yl]-4-methyl-3,4,6,10b-tetrahydro-1H-pyrazino[2,1-a]isoindol-2-yl]-1-ethyl-1,8-naphthyridin-2-one]
pIC50: 7.58
